# From patent publication US9133206B2, “Benzodiazepine and pyridodiazepine derivatives” (AbbVie Inc., priority 2010, dated 2015)
# Test system: SK-N-SH human neuroblastoma cells
# Assay: Serum Deprivation/JC-1 Mitochondrial Membrane Potential (MMP) Assay
# Type: cell-based
# Details: Homo sapiens, SK-N-SH; for EC50: 18 h, serum deprivation ~18 hours, JC-1 ratio normalized to peak value for 10 μM dimebolin, single curve fit to mean data of n=2-3; for Emax: percent maximal intensity in JC-1 ratio normalized to peak value for 10 μM dimebolin, serum deprivation, read-out: JC-1 max %
# Excerpt: The method also involves a high-throughput assay using serum-deprivation conditions involving neuronal cells to screen for compounds that increase or preserve mitochondrial membrane potential. Such compounds can be found to aid in rescuing cells from energy-depletion that occurs in several neurodegenerative states. Mitochondrial-mediated apoptosis occurs in response to a wide range of apoptotic stimuli including p^53, c-myc, DNA damage, prooxidants, chemotherapeutic agents, serum starvation and death receptor activation (Lin C—H., Lu Y-Z., Cheng, F-C., Chu L-F. and Hsuch C-M. Bax-regulated mitochondrial-mediated apoptosis is responsible for the in vitro ischemia induced neuronal cell death of Sprague Dawley rat. Neuroscience Lett. 2005, 387, 22-27).
# Thus, this stress inducer, serum deprivation, combined with monitoring changes in the mitochondrial membrane potential in a 96-well format allows for the establishment of an efficient high-throughput screen (HTS) in order to evaluate the ability of compounds to increase mitochondrial membrane potential in the presence of stress and preserve health of the cell. Exemplary procedures for conducting such high-throughput assay are provided below.
# SK-N-SH human neuroblastoma cells obtained from American Type Culture Collection (Rockville, Md.) were maintained in the log phase of growth in Minimal Essential Media (MEM), 10% heat inactivated fetal calf serum and 100 units/mL antibiotic-antimycotic (AA). Cells were cultured and maintained in a humidified incubator at 37° C. under 5% CO2 and 95% air. Cells were trypsinized (0.25%) and subcultured every 3 days and used from 15-18 passages. All cell culture supplies were obtained from Invitrogen (Carlsbad, Calif.).
# SK-N-SH cells were plated 2-3 days in advance at a concentration of 50,000 cells/well onto collagen coated black-walled 96 well plates (Becton-Dickinson, Bedford, Mass.) in a total volume of […]. On day of experimental treatment, the media containing serum was aspirated from each well and rinsed once with MEM/1% AA without serum. The cells then were incubated overnight in 100 μL of MEM/1% AA (no serum) with and without dimebolin or novel chemical entities overnight for ˜18 hours. The following day, JC-1 dye (5,5′,6,6′-tetrachloro-1,1′,3,3′-tetraethylbenzimidazolcarbocyanide) was diluted 1:10 into MEM media according to the JC-1 Mitochondrial Membrane Potential Assay Kit: (Cayman Chemical Company, Ann Arbor, Mich.) and then 10 μL of the JC-1 dye solution was added to each well. The plates were centrifuged for 5 minutes at 400×g at room temperature followed by 40 minute incubation at 37° C. The plates were washed twice with 200 μL of provided Assay Buffer followed an addition of 100 μL of Assay Buffer to each well. The plates were read with an excitation and emission of 560 nm and 595 nM for red fluorescence and with an excitation and emission of 485 nm and 535 nM for green fluorescence to determine the final JC-1 value taking the red to green fluorescence ratio. This assay is based on change in mitochondrial membrane potential (MMP) using this lipophilic cationic dye, JC-1, by monitoring the changes in the ratio of red to green fluorescence as the MMP depolarizes. This change in MMP reflects the health of the cell with healthy, viable cells have a high JC-1 ratio and high MMP whereas apoptotic, unhealthy cells have a low JC-1 ratio or low MMP.
# For the ability of compounds to reverse the stress due to serum deprivation and increase the JC-1 ratio, the percent maximal intensity in JC-1 ratio was normalized to that induced by the peak value for 10 μM dimebolin and plotted against the compound concentration to calculate EC50 values and to control for plate-to-plate variability. Concentration-response data were analyzed using GraphPad Prism (San Diego, Calif.); the EC50 values were derived from a single curve fit to the mean data of n=2-3, in duplicates. […]
Structure (SMILES),EC50 [µM],Emax [%]
"c1ccc(CN2CCN3c4ccccc4NCCC3C2)cc1 (stereo not drawn) [Example 26, 3-benzyl-1,2,3,4,4a,5,6,7-octahydropyrazino[1,2-a][1,5]benzodiazepine]",3.47,210
"O=C(Cc1ccc(Cl)cc1)N1CCC2CN(Cc3ccccc3)CCN2c2ccccc21 (stereo not drawn) [Example 27, 1-(3-benzyl-2,3,4,4a,5,6-hexahydropyrazino[1,2-a][1,5]benzodiazepin-7(1H)-yl)-2-(4-chlorophenyl)ethanone]",4.44,149
"c1ccc(CN2CCN3c4ccccc4CN(Cc4cccnc4)CC3C2)cc1 (stereo not drawn) [Example 28, 3-benzyl-6-(pyridin-3-ylmethyl)-1,2,3,4,4a,5,6,7-octahydropyrazino[1,2-a][1,4]benzodiazepine]",9.59,88
"c1ccc(CN2CCN3c4ccccc4CN(Cc4ccccn4)CC3C2)cc1 (stereo not drawn) [Example 29, 3-benzyl-6-(pyridin-2-ylmethyl)-1,2,3,4,4a,5,6,7-octahydropyrazino[1,2-a][1,4]benzodiazepine]",4.87,221
"c1ccc(CN2CCN3c4ccccc4CN(Cc4ccncc4)CC3C2)cc1 (stereo not drawn) [Example 30, 3-benzyl-6-(pyridin-4-ylmethyl)-1,2,3,4,4a,5,6,7-octahydropyrazino[1,2-a][1,4]benzodiazepine]",3.6,216
"O=C(c1ccc(Br)cc1)N1Cc2ccccc2N2CCN(Cc3ccccc3)CC2C1 (stereo not drawn) [Example 31, (3-benzyl-1,2,3,4,4a,5-hexahydropyrazino[1,2-a][1,4]benzodiazepin-6(7H)-yl)(4-bromophenyl)methanone]",1.97,218
"Cc1ccc(CN2Cc3ccccc3N3CCN(Cc4ccccc4)CC3C2)cn1 (stereo not drawn) [Example 32, 3-benzyl-6-[(6-methylpyridin-3-yl)methyl]-1,2,3,4,4a,5,6,7-octahydropyrazino[1,2-a][1,4]benzodiazepine]",1.98,140
"c1ccc(CN2CCN3c4ccccc4CN(Cc4cnc5ccccc5c4)CC3C2)cc1 (stereo not drawn) [Example 33, 3-benzyl-6-(quinolin-3-ylmethyl)-1,2,3,4,4a,5,6,7-octahydropyrazino[1,2-a][1,4]benzodiazepine]",1.3,192
"Clc1ccc(CN2Cc3ccccc3N3CCN(Cc4ccccc4)CC3C2)cn1 (stereo not drawn) [Example 34, 3-benzyl-6-[(6-chloropyridin-3-yl)methyl]-1,2,3,4,4a,5,6,7-octahydropyrazino[1,2-a][1,4]benzodiazepine]",2.94,213
"FC(F)(F)c1ccc(CN2Cc3ccccc3N3CCN(Cc4ccccc4)CC3C2)cn1 (stereo not drawn) [Example 35, 3-benzyl-6-{[6-(trifluoromethyl)pyridin-3-yl]methyl}-1,2,3,4,4a,5,6,7-octahydropyrazino[1,2-a][1,4]benzodiazepine]",2.86,159
"c1ccc(CN2CCN3c4ccccc4CN(Cc4ccnc5ccccc45)CC3C2)cc1 (stereo not drawn) [Example 36, 3-benzyl-6-(quinolin-4-ylmethyl)-1,2,3,4,4a,5,6,7-octahydropyrazino[1,2-a][1,4]benzodiazepine]",1.05,137
"c1ccc(CN2CCN3c4ccccc4CN(Cc4cncc5ccccc45)CC3C2)cc1 (stereo not drawn) [Example 37, 3-benzyl-6-(isoquinolin-4-ylmethyl)-1,2,3,4,4a,5,6,7-octahydropyrazino[1,2-a][1,4]benzodiazepine]",1.21,172
"O=C1NCc2ccccc2N2CCN(Cc3ccc(F)cc3)CC12 (stereo not drawn) [Example 38, 3-(4-fluorobenzyl)-2,3,4,4a,6,7-hexahydropyrazino[1,2-a][1,4]benzodiazepin-5(1H)-one]",> 30,27
"Brc1ccc(CN2Cc3ccccc3N3CCN(Cc4ccccc4)CC3C2)cn1 (stereo not drawn) [Example 39, 3-benzyl-6-[(6-bromopyridin-3-yl)methyl]-1,2,3,4,4a,5,6,7-octahydropyrazino[1,2-a][1,4]benzodiazepine]",3.69,200
"Fc1ccc(CN2CCN3c4ccccc4CNCC3C2)cc1 (stereo not drawn) [Example 40, 3-(4-fluorobenzyl)-1,2,3,4,4a,5,6,7-octahydropyrazino[1,2-a][1,4]benzodiazepine]",11.8,224
"O=C(c1ccc(Br)cc1)N1CCC2CN(Cc3ccccc3)CCN2c2ccccc21 (stereo not drawn) [Example 41, (3-benzyl-2,3,4,4a,5,6-hexahydropyrazino[1,2-a][1,5]benzodiazepin-7(1H)-yl)(4-bromophenyl)methanone]",4.67,186
"Brc1ccc(CN2Cc3ccccc3N3CCN(Cc4ccccc4)CC3C2)nc1 (stereo not drawn) [Example 42, 3-benzyl-6-[(5-bromopyridin-2-yl)methyl]-1,2,3,4,4a,5,6,7-octahydropyrazino[1,2-a][1,4]benzodiazepine]",3.09,189
"O=C(c1ccncc1)N1CCC2CN(Cc3ccccc3)CCN2c2ccccc21 (stereo not drawn) [Example 43, (3-benzyl-2,3,4,4a,5,6-hexahydropyrazino[1,2-a][1,5]benzodiazepin-7(1H)-yl)(pyridin-4-yl)methanone]",6.76,115
"Clc1ccc(CCN2CCC3CN(Cc4ccccc4)CCN3c3ccccc32)cc1 (stereo not drawn) [Example 44, 3-benzyl-7-[2-(4-chlorophenyl)ethyl]-1,2,3,4,4a,5,6,7-octahydropyrazino[1,2-a][1,5]benzodiazepine]",3,291
"c1ccc(CN2CCN3c4ccccc4N(Cc4ccccc4)CCC3C2)cc1 (stereo not drawn) [Example 45, 3,7-dibenzyl-1,2,3,4,4a,5,6,7-octahydropyrazino[1,2-a][1,5]benzodiazepine]",5.93,238
"Ic1ccc(CN2Cc3ccccc3N3CCN(Cc4ccccc4)CC3C2)cc1 (stereo not drawn) [Example 46, 3-benzyl-6-(4-iodobenzyl)-1,2,3,4,4a,5,6,7-octahydropyrazino[1,2-a][1,4]benzodiazepine]",1.87,192
"Brc1ccc(CN2CCC3CN(Cc4ccccc4)CCN3c3ccccc32)cc1 (stereo not drawn) [Example 47, 3-benzyl-7-(4-bromobenzyl)-1,2,3,4,4a,5,6,7-octahydropyrazino[1,2-a][1,5]benzodiazepine]",2.78,273
"c1ccc(CN2CCN3c4ccccc4N(Cc4ccncc4)CCC3C2)cc1 (stereo not drawn) [Example 48, 3-benzyl-7-(pyridin-4-ylmethyl)-1,2,3,4,4a,5,6,7-octahydropyrazino[1,2-a][1,5]benzodiazepine]",1.84,125
"CN1CCC2CN(Cc3ccccc3)CCN2c2ccccc21 (stereo not drawn) [Example 49, 3-benzyl-7-methyl-1,2,3,4,4a,5,6,7-octahydropyrazino[1,2-a][1,5]benzodiazepine]",10.4,128
"Oc1ccc(CN2Cc3ccccc3N3CCN(Cc4ccccc4)CC3C2)cc1 (stereo not drawn) [Example 50, 4-[(3-benzyl-1,2,3,4,4a,5-hexahydropyrazino[1,2-a][1,4]benzodiazepin-6(7H)-yl)methyl]phenol]",5.95,240
"O=C1CC2CN(Cc3ccccc3)CCN2c2ncccc2N1 (stereo not drawn) [Example 51, 9-benzyl-7,7a,8,9,10,11-hexahydropyrazino[1,2-d]pyrido[3,2-b][1,4]diazepin-6(5H)-one]",8.83,68
"c1ccc(CN2CCN3c4ncccc4NCCC3C2)cc1 (stereo not drawn) [Example 52, 9-benzyl-5,6,7,7a,8,9,10,11-octahydropyrazino[1,2-d]pyrido[3,2-b][1,4]diazepine]",5.97,100
